Data as given in the supplement of paper PMC11061612.

Experiments:
Assay in all cases: combination Emax (second highest fraction inhibited in the dose matrix, 72 h); higher = more inhibition; extreme values may be limits of the assay
GOTO (Neuroblastoma) = tested on: GOTO (Neuroblastoma)
Procedure, shortened: (§1)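 After 24 hours at 37°C and 5% CO2 in 1536-well plates, cells in DMEM/F12 or RPMI plus 10% FBS received two-drug dose matrices for 72 hours. Viability came from CellTiter-Glo 2.0 luminescence and was scaled as inhibition, anchored at 0 by vehicle wells and at 1 by blank wells. Combination Emax is taken as the second-highest inhibition in the matrix, and Bliss excess as the observed combination effect less EA + EB − EA·EB, with EA and EB the single-agent effects.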

[1] = tested on: HSC-2 (Oral Cavity Carcinoma)
Procedure, shortened: as §1

[2] = tested on: NCI-H2405 (Lung Adenocarcinoma)
Procedure, shortened: as §1

[3] = tested on: VMRC-LCD (Lung Adenocarcinoma)
Procedure, shortened: as §1

[4] = tested on: ASH-3 (Thyroid Gland Carcinoma)
Procedure, shortened: as §1

IMR-5 (Neuroblastoma) = tested on: IMR-5 (Neuroblastoma)
Procedure, shortened: as §1

EW-13 (Ewing's Sarcoma) = tested on: EW-13 (Ewing's Sarcoma)
Procedure, shortened: as §1

[5] = tested on: OCUB-M (Breast Carcinoma)
Procedure, shortened: as §1

BT-20 (Breast Carcinoma) = tested on: BT-20 (Breast Carcinoma)
Procedure, shortened: as §1

EW-3 (Ewing's Sarcoma) = tested on: EW-3 (Ewing's Sarcoma)
Procedure, shortened: as §1

[6] = tested on: KP-2 (Pancreatic Carcinoma)
Procedure, shortened: as §1

NB7 (Neuroblastoma) = tested on: NB7 (Neuroblastoma)
Procedure, shortened: as §1

[7] = tested on: NCI-H1573 (Lung Adenocarcinoma)
Procedure, shortened: as §1

[8] = tested on: LOU-NH91 (Squamous Cell Lung Carcinoma)
Procedure, shortened: as §1

[9] = tested on: JHH-7 (Hepatocellular Carcinoma)
Procedure, shortened: as §1

[10] = tested on: EMC-BAC-2 (Non-Small Cell Lung Carcinoma)
Procedure, shortened: as §1

SMILES: CCc1c2c(nc3ccc(O)cc13)-c1cc3c(c(=O)n1C2)COC(=O)[C@]3(O)CC [SN-38] + O=C(c1cc(Cc2n[nH]c(=O)c3ccccc23)ccc1F)N1CCN(C(=O)C2CC2)CC1 [Olaparib] (first compound max 0.3 µM, 7x7, partner max 10 µM)
- combination Emax (GOTO (Neuroblastoma)): 0.879
- combination Emax [1]: 0.977
- combination Emax [2]: 0.472
- combination Emax [3]: 0.121
- combination Emax [4]: 0.912
- combination Emax (IMR-5 (Neuroblastoma)): 1
- combination Emax (EW-13 (Ewing's Sarcoma)): 0.811
- combination Emax [5]: 0.922
- combination Emax (BT-20 (Breast Carcinoma)): 0.855
- combination Emax (EW-3 (Ewing's Sarcoma)): 0.884
- combination Emax [6]: 0.55
- combination Emax (NB7 (Neuroblastoma)): 0.967
- combination Emax [7]: 0.187
- combination Emax [8]: 0.883
- combination Emax [9]: 0.289
- combination Emax [10]: 0.531
